Source: US7776882B2, “2-amino-3,4-dihydro-quinoline derivatives useful as inhibitors of β-secretase (BACE)” (priority 2006, dated 2010)
pIC50: −log10 of the molar value. Several values for one entry are separate records, joined by “and”; a condition that tells them apart may be missing. Equal values may be shown once. Read-outs that look alike come from different tables or passages of the source.

Key:
Assay type in all cases: biochemical
β-secretase (BACE) [1] = target: T1, β-secretase (BACE) (Homo sapiens, UniProt P56817); assay: In Vitro BACE FS1 % Inhibition Assay (Example 10); details: FS1 substrate, values below about 25% (including negative) within noise; for % Inhibition (Example 10) @ 0.3 μM / inhibition at 0.3 µM: 0.3 μM compound; for % Inhibition (Example 10) @ 1 μM / inhibition at 1 µM: 1 μM compound; for % Inhibition (Example 10) @ 3 μM / inhibition at 3 µM: 3 μM compound
T1 construct: purchased Panvera
T1 sequence (P56817 46-501): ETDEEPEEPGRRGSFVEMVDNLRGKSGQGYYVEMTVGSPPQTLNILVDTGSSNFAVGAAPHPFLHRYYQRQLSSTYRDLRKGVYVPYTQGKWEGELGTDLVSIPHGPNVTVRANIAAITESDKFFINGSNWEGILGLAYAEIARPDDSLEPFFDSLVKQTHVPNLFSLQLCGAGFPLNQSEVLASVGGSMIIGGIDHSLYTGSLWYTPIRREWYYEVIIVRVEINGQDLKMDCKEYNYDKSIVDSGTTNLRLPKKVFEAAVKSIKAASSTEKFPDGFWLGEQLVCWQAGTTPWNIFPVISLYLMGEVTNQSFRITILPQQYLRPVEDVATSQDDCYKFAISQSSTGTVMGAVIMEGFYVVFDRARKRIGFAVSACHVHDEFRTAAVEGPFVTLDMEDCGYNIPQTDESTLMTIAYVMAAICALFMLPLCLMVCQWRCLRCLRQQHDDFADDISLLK
Experimental: (§1) The following assay buffers were prepared and used in this assay: (1) enzyme assay buffer (0.05 M sodium acetate, pH5, 0.1% PEG8000 (w/v)), (2) substrate assay buffer (0.05 M sodium acetate, pH5), and (3) compound vehicle (30% DMSO in 50 mM HEPES, pH 7.4).
(§2) The FS1-substrate stock solution was prepared in DMSO as a 10 mg/mL solution. The FS1-substrate working solution was prepared by diluting the 10 mg/mL stock solution with substrate assay buffer to a final concentration of 300 μg/mL. The β-secretase (BACE) working solution was prepared by diluting a 0.83 mg/mL BACE stock solution with enzyme assay buffer to a final concentration of 4 μg/mL.
Test compounds were dissolved in DMSO to 10 mM. Compounds were further diluted in vehicle to various concentrations in the range of 405 μM to 4.05 μM (13.5×final compound concentration in screening plate).
(§3) The screening procedure for this assay was as follows: 15 μL of BACE working solution was pipetted into each well of a 96-well plate. To each well was then pipetted 2 μL of test compound at the selected concentration. Test compound and BACE were then mixed with a pipettor and incubated for 20 min at room temperature. To each well was then added 10 μL of the FS1 substrate working solution. The plates were then incubated for 1 hour at room temperature. The fluorescence for each well was then measured on an LJL analyst (Ex 360 nm/Em 530 nm).
The procedure for the blank (negative control) was as follows. 15 μL of assay buffer was pipetted into each well to be used as a blank control. To each well was then added 2 μL of vehicle and 10 μL of FS1-substrate working solution. The plates were then incubated for 1 hour at room temperature. The fluorescence was measured on an LJL analyst (Ex 360 nm/Em 530 nm).
(§4) The procedure for the positive control was as follows: 15 μL of BACE working solution was pipetted into each well to be used as a positive control. To each well was then pipetted 2 μL of vehicle. Vehicle and BACE were then mixed with a pipettor and incubated for 20 min at room temperature. To each well was then added 10 μL of the FS1 substrate working solution. The plates were then incubated for 1 hour at room temperature. The fluorescence (Fl) was then measured on an LJL analyst (Ex 360 nm/Em 530 nm).
For test compounds, % inhibition was determined at each concentration as follows: […]

β-secretase (BACE) [2] = target: T1, β-secretase (BACE); assay: In Vitro BACE Assay, Ki (Example 11); details: FS1 substrate 50 μM, Km 24 μM
Experimental: The following reagents were used in this assay: sodium acetate, PEG8000 (Sigma), DMSO, HEPES, FS1 substrate [R(AedensE)[…]-(DabcylK)R], β-secretase (BACE) (Panvera), and 96-well plate (HE microplate, Molecular Devices).
as §1, §2
Test compounds were dissolved in DMSO at 10 mM.
as §3, with “The” for “The screening”, “The” for “The plates were then incubated for 1 hour at room temperature. The”, “a Polarstar fluorometer” for “an LJL analyst”, “390” for “360”, “520 nm) for 20 min at room temperature, reading fluorescence at 1 min intervals.” for “530 nm).”
as §4, with “The” for “The plates were then incubated for 1 hour at room temperature. The”, “fluorescence” for “fluorescence (Fl)”, “a Polarstar fluorometer” for “an LJL analyst”, “390” for “360”, “520 nm) for 20 min at room temperature, reading fluorescence at 1 min intervals.” for “530 nm).”
For test compounds, Ki inhibition was determined as follows: For each compound concentration and positive control, rate of cleavage of substrate (Vi, where i=compound concentration in μM) was determined as Δ Fluorescence/Δ time (min). Cleavage rates (Vi) were plotted as a function of inhibitor concentration in μM [I]. The Ki was then determined by fitting the following equation to the graph of [I] vs Vi Y=aVmax/(50+24*(1+X/Ki)),

human BACE-1 = target: T2, human BACE-1 (Homo sapiens, UniProt P56817); assay: In Vitro BACE Assay run by CEREP (Example 14); details: recombinant enzyme, 60 min at 37° C., pH 4.5; for inhibition at 1 µM / % Inhibition 1 μM: 1 μM compound
T2 construct: purchased CEREP (contract assay) 761-B
T2 sequence (P56817 46-501): as above
Experimental: This assay was run by CEREP (Catalog Ref. 761-B, Referred to SOP No. 1C131; ERMOLIEFF, J., LOY, J. A., KOELSCH, G. and TANG, J., Proteolytic activation of recombinant pro-memapsin 2 (pro-BACE) studied with new fluorogenic substrates, Biochemistry, (2000) Vol. 39, p. 12450).
More specifically the assay, run at 50 μL in a 96 well plate, evaluated the effect of test compound on the activity of the human BACE-1 quantified by measuring the formation of Mca-S-E-V-N-L-NH2 from Mca-S-E-V-N-L-D-A-E-F-R-K(Dnp)-R-R-NH2, using a recombinant enzyme.
The test compound, reference compound or water (control) was added to a buffer containing 0.09 M sodium acetate (pH 4.5) and 0.25 μg BACE-1. Compound interference with the fluorimetric detection method due to autofluorescence was then checked by measurements at the wavelengths defined to evaluate the enzyme activity. Thereafter, the reaction was initiated by adding 7.5 μM of the substrate Mca-S-E-V-N-L-D-A-E-F-R-K(Dnp)-R-R-NH2 and the mixture was incubated for 60 min at 37° C. For control basal measurement, the substrate was omitted from the reaction mixture. Immediately after the incubation, the fluorescence intensity emitted by the reaction product Mca-S-E-V-N-L-NH2 was measured at λex=320 nm and λem=405 nm using a microplate reader (Ultra, Tecan). The standard inhibitory reference compound was OM99-2, which was tested in each experiment at several concentrations to obtain an inhibition curve from which its IC50 value was calculated.

Nc1nc2ccc(Oc3ccccc3)cc2cc1CCC(=O)NC12CC3CC(CC(C3)C1)C2 [compound 2] was tested, and the “% Inhibition (Example 10) @ 0.3 μM” value (β-secretase (BACE) [1]) was 45%, the “% Inhibition (Example 10) @ 1 μM” value (β-secretase (BACE) [1]) was 78% and the “% Inhibition (Example 10) @ 3 μM” value (β-secretase (BACE) [1]) was 107%. It also gave a Ki (β-secretase (BACE) [2]; read-out: Ki (μM) (Example 11)) of 0.23 µM.

CC1CCCC(NC(=O)CCc2cc3cc(Oc4ccccc4)ccc3nc2N)C1 (centres unmarked) [compound 3] was tested, and the inhibition at 0.3 µM (β-secretase (BACE) [1]) was 58%, the inhibition at 1 µM (β-secretase (BACE) [1]) was 89% and the inhibition at 3 µM (β-secretase (BACE) [1]) was 115%. It also gave a Ki (β-secretase (BACE) [2]; Ki (μM) (Example 11)) of 0.49 µM.

With CC(C)=CCCC(C)=CCNC(=O)CCc1cc2cc(Oc3ccccc3)ccc2nc1N [compound 13] the inhibition at 0.3 µM (β-secretase (BACE) [1]) was 2%, the inhibition at 1 µM (β-secretase (BACE) [1]) was 42% and the inhibition at 3 µM (β-secretase (BACE) [1]) was 88%. It also gave a Ki (β-secretase (BACE) [2]; Ki (μM) (Example 11)) of 0.64 µM.

In the case of Nc1nc2ccc(Oc3ccccc3)cc2cc1C(CCC(=O)NC12CC3CC(CC(C3)C1)C2)C1CCCCC1 (centres unmarked) [compound 15], the “% Inhibition (Example 10) @ 0.3 μM” value (β-secretase (BACE) [1]) was 43%, the “% Inhibition (Example 10) @ 1 μM” value (β-secretase (BACE) [1]) was 58% and the “% Inhibition (Example 10) @ 3 μM” value (β-secretase (BACE) [1]) was 78%. It also gave a Ki (β-secretase (BACE) [2]; read-out: Ki (μM) (Example 11)) of 0.28 µM.

Compound CN(C(=O)CCC(c1cc2cc(Oc3ccccc3)ccc2nc1N)C1CCCCC1)C1CCCCC1 (centres unmarked) [compound 16] has an inhibition at 0.3 µM (β-secretase (BACE) [1]) of 29%, an inhibition at 1 µM (β-secretase (BACE) [1]) of 27% and an inhibition at 3 µM (β-secretase (BACE) [1]) of 78%. It also gave an inhibition at 0.3 µM (human BACE-1; 0.3 μM compound) of 15%, an inhibition at 1 µM (human BACE-1) of 46% and a pIC50 (human BACE-1) of 6.15. For the same compound, the Ki (β-secretase (BACE) [2]; Ki (μM) (Example 11)) was 0.44 µM.

With CN(C(=O)CCC(c1cc2cc(Oc3ccccc3)ccc2nc1N)C1CCOCC1)C1CCCCC1 (centres unmarked) [compound 23] the “% Inhibition (Example 10) @ 0.3 μM” value (β-secretase (BACE) [1]; 0.3 µM) was 34% and 64%, the inhibition at 1 µM (β-secretase (BACE) [1]) was 88% and the “% Inhibition (Example 10) @ 1 μM” value (β-secretase (BACE) [1]; 1 µM) was 93%. The inhibition at 3 µM (β-secretase (BACE) [1]) was 127%, the “% Inhibition (Example 10) @ 3 μM” value (β-secretase (BACE) [1]; 3 µM) was 125% and the inhibition at 1 µM (human BACE-1) was 78%. The pIC50 (human BACE-1) was 6.38 and the Ki (β-secretase (BACE) [2]; Ki (μM) (Example 11)) was 0.12 µM and 0.31 µM.

In the case of Nc1nc2ccc(Oc3ccccc3)cc2cc1C(CCC(=O)NC12CC3CC(CC(C3)C1)C2)C1CCOCC1 (centres unmarked) [compound 24], the “% Inhibition (Example 10) @ 0.3 μM” value (β-secretase (BACE) [1]) was 56%, the “% Inhibition (Example 10) @ 1 μM” value (β-secretase (BACE) [1]) was 103% and the “% Inhibition (Example 10) @ 3 μM” value (β-secretase (BACE) [1]) was 132%. It also gave a Ki (β-secretase (BACE) [2]; read-out: Ki (μM) (Example 11)) of 0.066 µM.

Work on CN(C(=O)CC[C@H](c1cc2cc(Oc3ccccc3)ccc2nc1N)C1CCOCC1)C1CCCCC1 [compound 25] yielded an inhibition at 0.3 µM (β-secretase (BACE) [1]) of 83%, an inhibition at 1 µM (β-secretase (BACE) [1]) of 114% and an inhibition at 3 µM (β-secretase (BACE) [1]) of 126%. The Ki (β-secretase (BACE) [2]; Ki (μM) (Example 11)) was 0.16 µM.

Nc1nc2ccc(Oc3ccccc3)cc2cc1C(CCC(=O)N(Cc1ccccn1)C1CCCCC1)C1CCOCC1 (centres unmarked) [compound 60] showed an inhibition at 1 µM (human BACE-1) of 83% and a pIC50 (human BACE-1) of 6.49.

For CN(CCC(c1cc2cc(Oc3ccccc3)ccc2nc1N)C1CCCCC1)C1CCCCC1 (centres unmarked) [compound 61], the “% Inhibition 1 μM” value (human BACE-1) was 15%.

For Nc1nc2ccc(Oc3ccccc3)cc2cc1C(CCC(=O)N(CN1CCCC1)C1CCCCC1)C1CCOCC1 (centres unmarked) [compound 64], the inhibition at 1 µM (human BACE-1) was 83% and the pIC50 (human BACE-1) was 6.72.

Nc1nc2ccc(Oc3ccccc3)cc2cc1C(CCC(=O)N(CCN1CCOCC1)C1CCCCC1)C1CCOCC1 (centres unmarked) [compound 65] gave an inhibition at 1 µM (human BACE-1) of 69% and a pIC50 (human BACE-1) of 6.07.

Compound CC(C)(C)OCCN(C(=O)CCC(c1cc2cc(Oc3ccccc3)ccc2nc1N)C1CCOCC1)C1CCCCC1 (centres unmarked) [compound 66] has an inhibition at 1 µM (human BACE-1) of 86% and a pIC50 (human BACE-1) of 6.33.

Compound Nc1nc2ccc(Oc3ccccc3)cc2cc1C(CCC(=O)N(CC1CC1)C1CCCCC1)C1CCOCC1 (centres unmarked) [compound 67] has an inhibition at 1 µM (human BACE-1) of 90% and a pIC50 (human BACE-1) of 6.39.

For Nc1nc2ccc(Oc3ccccc3)cc2cc1C(CCC(=O)N(CCO)CC1CC1)C1CCOCC1 (centres unmarked) [compound 68], the inhibition at 1 µM (human BACE-1) was 41% and the pIC50 (human BACE-1) was 5.82.

Compound CC(C)(C)CN(Cc1ccccn1)C(=O)CCC(c1cc2cc(Oc3ccccc3)ccc2nc1N)C1CCOCC1 (centres unmarked) [compound 69] has an inhibition at 1 µM (human BACE-1) of 69% and a pIC50 (human BACE-1) of 6.17.

For Cn1ccnc1CN(CCC(C)(C)C)C(=O)CCC(c1cc2cc(Oc3ccccc3)ccc2nc1N)C1CCCCC1 (centres unmarked) [compound 70], the “% Inhibition 1 μM” value (human BACE-1; 1 µM) was 10%.

With Cn1ccnc1CN(CCC(C)(C)C)C(=O)CCC(c1cc2cc(Oc3ccccc3)ccc2nc1N)C1CCCCC1 (centres unmarked) [compound 71] the “% Inhibition 1 μM” value (human BACE-1; 1 µM) was 73%.

In the case of Cn1ccnc1CN(CCC(C)(C)C)C(=O)CCC(c1cc2cc(Oc3ccccc3)ccc2nc1N)C1CCCCC1 (centres unmarked) [compound 72], the “% Inhibition 1 μM” value (human BACE-1; 1 µM) was 81%.

C=CCCC(c1cc2cc(Oc3ccccc3)ccc2nc1N)C1CCCCC1 (centres unmarked) [compound 509] was tested, and the “% Inhibition 0.3 μM” value (human BACE-1; 0.3 μM compound) was 11% and the “% Inhibition 1 μM” value (human BACE-1) was −3%.
